Values joined by “and” are separate entries in the source; they are usually repeats but may differ in a detail not shown here. Identical values can stand only once. Like-named read-outs stand apart in the source and are kept apart here.
How the values were obtained:
[1] = molecular target: cluster 2b type streptokinase (Streptococcus pyogenes, UniProt P10520); parameters: species or system group A streptococcal strain A314; details: cell-based; for IC50: cluster 2b; for fold lower IC50 compared to TXA and EACA: streptokinase cluster type 2b
Method: (§1) Then inhibitory compounds (LA, PA, oleic, myristic, stearic, palmitic, arachidonic, arachidic, linolenic acid, TXA or EACA) were added. Stocks of LA and PA were prepared in methanol and then diluted in PBS. Stocks of arachidic, oleic, arachidonic, myristic, palmitic, stearic and linolenic acid were prepared in 60% DMSO/PBS and then diluted in PBS. The untreated control received the same amount of PBS as in case of TXA and EACA as control or the same amount of methanol diluted in PBS as in case of LA and PA, respectively, or the same amount of DMSO diluted in PBS as in case of the other commercially available fatty acids. […] The assay was incubated at 37 °C and measured at the beginning of the reaction and then every hour at 405 nm after 3 sec of shaking on a Tecan Sunrise ELISAReader using Magellan software. Each experiment was repeated three times. IC50 values were calculated using Microsoft® Excel software.

S. pyogenes strain A666 = test: Clotting assay, escape of streptococci from clot (cluster 2b type streptokinase); type: cell-based; details: 60 µg/ml, after 4 h, p < 0.05
Method: (§2) To assess whether LA and PA influence the entrapment of bacteria within clots, a 50 ml overnight culture (THY medium) of the S. pyogenes strains AP1 or A666 was centrifuged at 4332 × g for 10 min. […] For clot induction, 100 µl citrate plasma, 100 µl of the respective bacterial suspension and 50 µl thrombin-reagent (Haemochrom Diagnostica) were used. […] Then clots were left untreated (treated with sodium citrate buffer only) or were treated with LA or PA (diluted in sodium citrate buffer). For clots formed with S. pyogenes strain A666, a final concentration of 60 µg/ml was used for both, LA and PA. For those formed with S. pyogenes strain AP1, a final concentration of 30 µg/ml was used. 50 µl of the supernatant of each sample were plated onto blood agar plates in serial dilutions at 0, 2 and 4 h after clot induction and incubated at 37 °C overnight. Colonies were counted the following day to assess the number of bacteria which had escaped the clot. […] Two independent experiments were performed. Standard deviations were calculated accordingly. Citrate plasma was obtained from healthy volunteers who gave their informed consent.

[2] = molecular target: cluster 1 type streptokinase (Streptococcus pyogenes, UniProt P10520); type: biochemical, group A streptococcal strain A328; details: supernatant-based; for IC50: cluster 1; for fold lower IC50-values than TXA and EACA: cluster 1 type streptokinase
Chain of cluster 1 type streptokinase (P00747 20-810): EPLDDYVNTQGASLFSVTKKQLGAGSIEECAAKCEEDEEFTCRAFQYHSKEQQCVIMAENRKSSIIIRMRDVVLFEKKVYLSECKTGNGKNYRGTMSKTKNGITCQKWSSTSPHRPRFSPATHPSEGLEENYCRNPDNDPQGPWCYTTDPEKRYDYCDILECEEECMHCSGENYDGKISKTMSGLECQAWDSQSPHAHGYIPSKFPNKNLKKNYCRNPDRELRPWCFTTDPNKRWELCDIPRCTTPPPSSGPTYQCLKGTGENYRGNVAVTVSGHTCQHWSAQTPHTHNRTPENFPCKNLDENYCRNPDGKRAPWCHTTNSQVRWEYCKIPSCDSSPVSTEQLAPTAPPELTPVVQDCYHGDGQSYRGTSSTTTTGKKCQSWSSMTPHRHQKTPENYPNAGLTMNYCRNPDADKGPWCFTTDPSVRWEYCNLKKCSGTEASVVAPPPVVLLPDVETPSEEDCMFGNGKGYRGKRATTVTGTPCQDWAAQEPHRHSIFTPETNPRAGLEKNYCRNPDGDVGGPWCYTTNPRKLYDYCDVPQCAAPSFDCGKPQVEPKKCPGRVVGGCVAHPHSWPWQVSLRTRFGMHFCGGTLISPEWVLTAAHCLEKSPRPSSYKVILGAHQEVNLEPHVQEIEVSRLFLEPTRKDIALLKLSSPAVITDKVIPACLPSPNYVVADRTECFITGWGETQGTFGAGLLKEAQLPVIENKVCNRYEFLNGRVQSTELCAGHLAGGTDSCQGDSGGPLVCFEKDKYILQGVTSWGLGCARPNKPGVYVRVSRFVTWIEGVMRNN
Chain of cluster 1 type streptokinase (P10520 27-440): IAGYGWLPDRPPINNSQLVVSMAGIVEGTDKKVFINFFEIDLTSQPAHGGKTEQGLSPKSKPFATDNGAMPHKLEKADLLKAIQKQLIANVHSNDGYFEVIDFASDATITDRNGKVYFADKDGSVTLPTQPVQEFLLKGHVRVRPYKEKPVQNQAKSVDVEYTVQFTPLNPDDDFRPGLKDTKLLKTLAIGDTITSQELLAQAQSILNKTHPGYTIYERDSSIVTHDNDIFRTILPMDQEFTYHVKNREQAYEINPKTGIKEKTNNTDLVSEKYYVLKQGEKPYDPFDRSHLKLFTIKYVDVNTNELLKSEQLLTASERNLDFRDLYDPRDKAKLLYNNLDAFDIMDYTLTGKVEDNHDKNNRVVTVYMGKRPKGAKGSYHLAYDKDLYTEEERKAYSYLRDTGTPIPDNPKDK
Method: as §1, with “An overnight culture of the strain A328 (cluster 1 type) or A614 (cluster 2a type) was diluted 1:10 in pre-warmed THY medium and grown to an OD600 of around 0.5 at 37 °C. […] The pellet was resuspended in Tris-HCl buffer (50 mM Tris pH 7.5). Then” for “Then”, “added. Stocks of TXA and EACA were prepared in PBS.” for “added.”, “run” for “incubated”, “°C. The absorption was” for “°C and”

S. pyogenes strain AP1 = test: Clotting assay, escape of streptococci from clot (cluster 2a type streptokinase); type: cell-based; details: 30 µg/ml, after 4 h, p < 0.05
Method: as §2

[3] = molecular target: T1, cluster 2a type streptokinase (Streptococcus pyogenes, UniProt A0A288R465); test: biochemical; type: biochemical, group A streptococcal strain A614; details: supernatant-based; for IC50 / fold lower concentration for the same range of inhibition as oleic and linolenic acid: cluster 2a; for fold lower IC50-values than TXA and EACA: cluster 2a type streptokinase
[4] = molecular target: T1, cluster 2a type streptokinase; parameters: species or system group A streptococcal strain A614; details: cell-based; for fold lower IC50 compared to TXA and EACA: streptokinase cluster type 2a
Method: The pellet from a mid-log phase culture of the strain A614 (cluster 2a type) or A314 (cluster 2b type) was washed twice with PBS and bacteria were adjusted to an OD600 of 1.0 in HEPES-buffer (10 mM HEPES, 150 mM NaCl, 0.01% Tween 20, pH 7.4). 90 µl of bacterial cells, plasminogen (final concentration 6.7 µg/ml per well) and fibrinogen (final concentration 1 µM per well) were pre-mixed. Then inhibitory compounds (LA, PA, oleic, myristic, stearic, palmitic, arachidonic, arachidic, linolenic acid, TXA or EACA) were added. Stocks of LA and PA were prepared in methanol and then diluted in PBS. Stocks of arachidic, oleic, arachidonic, myristic, palmitic, stearic and linolenic acid were prepared in 60% DMSO/PBS and then diluted in PBS. The untreated control received the same amount of PBS as in case of TXA and EACA as control or the same amount of methanol diluted in PBS as in case of LA and PA, respectively, or the same amount of DMSO diluted in PBS as in case of the other commercially available fatty acids. Then 50 µl of the respective supernatant (supernatant from the strain A614 if cells from A614 were used, supernatant from the strain A314 were used in case of cells from the GAS strain A314) and 3.75 µl 10 mM S-2251 (Chromogenix) were added. The assay was incubated at 37 °C and measured at the beginning of the reaction and then every hour at 405 nm after 3 sec of shaking on a Tecan Sunrise ELISAReader using Magellan software. Each experiment was repeated three times. IC50 values were calculated using Microsoft® Excel software.

SMILES	IC50 [1]	fold lower IC50 compared to TXA and EACA [1] [fold]	GAS escaped from the clot compared to the untreated clot (S. pyogenes strain A666)	IC50 [2]	fold lower IC50-values than TXA and EACA [2]	GAS escaped from the clot compared to the untreated clot (S. pyogenes strain AP1)	IC50 [3]	fold lower concentration for the same range of inhibition as oleic and linolenic acid [3]	fold lower IC50-values than TXA and EACA [3]	fold lower IC50 compared to TXA and EACA [4] [fold]	IC50 ([4]; cluster 2a)
CCCCC/C=C\C/C=C\CCCCCCCC(=O)O [LA, linoleic acid]	64.5 µM and 61.7 µM	1000	significantly lower amount of GAS escaped	46.6 µM and 46 µM	500–1000 fold	significantly lower amount of GAS escaped	156 µM and 149 µM	3–4 fold	500–1000 fold	250	
CCCCCC/C=C\CCCCCCCC(=O)O [PA, palmitoleic acid]	61.1 µM and 63.3 µM	1000	significantly lower amount of GAS escaped	40.9 µM	500–1000 fold	significantly lower amount of GAS escaped	91.6 µM and 105 µM	3–4 fold	500–1000 fold	250	359 µM and 471 µM

Reference: publication PMC5603603, “Linoleic and palmitoleic acid block streptokinase-mediated plasminogen activation and reduce severity of invasive group A streptococcal infection” (Scientific Reports, 2017)
